From the supplement of paper PMC10307832

Key:
Test in all cases: relative viability (nuclei count vs DMSO), 5 days (fraction); higher = more cells survive
[1] = compound: CCN(CC)CCNC(=O)c1c(C)[nH]c(/C=C2\C(=O)Nc3ccc(F)cc32)c1C [Sunitinib] + CS(=O)(=O)N1CCN(Cc2cc3nc(-c4cccc5[nH]ncc45)nc(N4CCOCC4)c3s2)CC1 [Pictilisib] (partner 1 µM)
How it was run: (§1)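 Relative viability equals treated-well nuclei counts divided by vehicle-well nuclei counts. Counts came from 4× images of lung cancer cell lines grown in 1536-well plates for 5 days after pin-tool dosing on the day after seeding. Dosing used one drug alone or a fixed anchor-drug dose plus five library-drug doses (not always all listed) in √10 steps, and values are medians of duplicate plates.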

[2] = compound: CCN(CC)CCNC(=O)c1c(C)[nH]c(/C=C2\C(=O)Nc3ccc(F)cc32)c1C [Sunitinib] + C[C@]1(O)C[C@@H](c2nc(-c3ccc4ccc(-c5ccccc5)nc4c3)c3c(N)nccn32)C1 [Linsitinib] (partner 1 µM)
How it was run: as §1

[3] = compound: CCN(CC)CCNC(=O)c1c(C)[nH]c(/C=C2\C(=O)Nc3ccc(F)cc32)c1C [Sunitinib] + Cc1nc(NC(=O)N2CCC[C@H]2C(N)=O)sc1-c1ccnc(C(C)(C)C(F)(F)F)c1 [Alpelisib] (partner 2 µM)
How it was run: as §1

[4] = compound: CCN(CC)CCNC(=O)c1c(C)[nH]c(/C=C2\C(=O)Nc3ccc(F)cc32)c1C [Sunitinib] + Nc1ncn([C@H]2C[C@H](O)[C@@H](CO)O2)c(=O)n1 [Decitabine] (partner 2 µM)
How it was run: as §1

Cell Line	relative viability ([1]; first compound 0.02 µM)	relative viability ([1]; first compound 0.06325 µM)	relative viability ([1]; first compound 0.2 µM)	relative viability ([1]; first compound 0.6325 µM)	relative viability ([1]; first compound 2 µM)	relative viability ([2]; first compound 0.02 µM)	relative viability ([2]; first compound 0.06325 µM)	relative viability ([2]; first compound 0.2 µM)	relative viability ([2]; first compound 0.6325 µM)	relative viability ([2]; first compound 2 µM)	relative viability ([3]; first compound 0.02 µM)	relative viability ([3]; first compound 0.06325 µM)	relative viability ([3]; first compound 0.2 µM)	relative viability ([3]; first compound 0.6325 µM)	relative viability ([3]; first compound 2 µM)	relative viability ([4]; first compound 0.02 µM)	relative viability ([4]; first compound 0.06325 µM)	relative viability ([4]; first compound 0.2 µM)	relative viability ([4]; first compound 0.6325 µM)	relative viability ([4]; first compound 2 µM)
NCI-H661	0.385	0.362	0.368	0.319	0.441	0.488	0.513	0.496	0.572	0.598	0.597	0.547	0.515	0.582	0.759	0.509	0.578	0.544	0.56	0.597
201T	0.697	0.708	0.738	0.675	0.738	1	0.941	1.06	1.09	1.04	1.04		1.06		1.02	0.838	0.91		0.872	0.88
SK-MES-1	0.352	0.382	0.344	0.316	0.359	0.982	1.1	1.12	1.08	1.03	0.885	1.02	0.86	1.02	0.927	0.345	0.369	0.368	0.389	0.379
NCI-H1666	0.459	0.517	0.603	0.55	0.429	0.701	0.815	0.971	0.827		0.865	0.938	1.03	1.02	0.971	0.905	0.884	0.738	0.698	0.735
LU99A	0.308	0.352	0.282	0.317	0.313	0.455	0.574	0.602	0.652	0.474	0.512	0.547	0.586	0.566		0.792	0.836	1.02	0.995	0.734
LC-2-ad	0.51	0.461	0.444	0.285	0.28	0.839	0.918	0.89	0.844	0.677	0.897	0.613		0.891	0.605	0.788	0.777	0.82	0.728	0.714
NCI-H2009	0.748	0.791	0.842	0.876	0.758	1.2	1.18	1.2	1.31	1.27	1.18	1.2	1.27	1.19	1.12	0.349	0.364	0.371	0.424	0.373
NCI-H520	0.244	0.32	0.348	0.278	0.273	0.86	1.15	0.911	0.975	1.01	1.01	0.841	0.867		0.729	0.487	0.499	0.55	0.577	0.537
EKVX	0.456	0.437	0.578	0.495	0.577	1.07	1.04	1.18	1.12	1.06	0.907			0.996	0.909	0.352	0.384	0.45	0.382	0.412
NCI-H1355	0.431	0.448	0.477	0.399	0.447	0.759	0.859	0.874	0.829	0.813	0.73	0.848		0.829	0.857	0.369	0.381	0.375	0.365	0.345
SW 1573	0.511	0.438	0.591	0.555	0.458	0.987	1	0.917	0.999		0.715	0.827	0.932	0.84	0.784	0.403	0.508	0.556	0.62	0.554
NCI-H838	0.409	0.499	0.506	0.487	0.361	0.916	0.987	1.06	1.07	0.85		0.999	1.16	0.992		0.447	0.489	0.476	0.485	0.448
NCI-H1915	0.958	1.01	1.02	0.977	1.02	1.08	1.15	1.14	1.09	1.11		1.09	1.13	1.06	1.11	0.266	0.278	0.264	0.26	0.271
NCI-H647	0.302	0.381		0.373	0.454		1.23	1.28	0.991	0.969	1.05	1.04	1.36	1.21	0.82	0.329	0.47	0.512	0.537	0.41
PC-3 [JPC-3]	0.819	0.768	0.841	0.685	0.694	0.978	0.975	0.951	0.987	0.881	1.1	1.07	1.03	1.07	0.99	0.89	0.788		0.79	0.764
NCI-H1793		0.296	0.361	0.241	0.297		0.856	1.08	0.838	0.93		0.727	0.823	0.696	0.787		0.496	0.487	0.549	0.49
NCI-H1993	0.777	0.913	0.808	0.832	0.92	0.711	0.744		0.8	0.664	0.674	0.697	0.716	0.689	0.68	0.514	0.632	0.605	0.577	0.61
NCI-H1437	0.376	0.559	0.427	0.456	0.434	0.975	1	1.2		1.02	0.949	0.974		1.01	0.905	0.566	0.606	0.624	0.514	0.628
NCI-H441	0.431	0.546	0.48	0.476	0.428	0.406	0.491	0.542	0.555	0.612		0.83	0.766	0.569	0.487	0.271	0.285	0.266	0.271	0.317
A549	0.457	0.546	0.589	0.631	0.412	0.563	0.638	0.669	0.716	0.579	0.686	0.825	0.884	0.872	0.776	0.248	0.293	0.252	0.272	0.306
NCI-H322M	0.497	0.553	0.582	0.511	0.474	0.871	0.969	0.985	0.942	0.754	0.728	0.739	0.855	0.822	0.664	0.664	0.72	0.654	0.798	0.696
LOU-NH91	0.525	0.537	0.533	0.556	0.53		0.983	0.959	0.95	0.87		0.71	0.76	0.752	0.652	0.787	0.824	0.826	0.805	0.835
EPLC-272H	0.313	0.336	0.297	0.338	0.334	1.27	1.1	1.15	1.09	0.93	0.885	0.668	1	1	0.729	0.346	0.408	0.389	0.368	0.312
NCI-H2023	0.205	0.265	0.26	0.269	0.23	0.709	0.594	0.754	0.788	0.582	0.638	0.584	0.697	0.64	0.516	0.242	0.225	0.247	0.243	0.217
NCI-H1755	0.371	0.481	0.472	0.454	0.451	0.996	0.98		0.979	0.941	0.938	0.915	1.01	0.94		0.69		0.663	0.692	0.76
NCI-H3122	0.576	0.64	0.583	0.577	0.548	1.02	1.07	1.04	0.992	1.05		0.894	0.84	0.725	0.803	0.412	0.439	0.542	0.364	0.453
NCI-H727	0.278	0.417	0.542	0.325	0.344	0.146	0.363	0.239	0.311	0.292	0.532	0.546	0.647	0.559	0.537	0.837	0.836	0.857	0.754	0.889
COR-L 105	0.371	0.415	0.569	0.364	0.409	1.02	0.994	0.839	1.15	1.03	0.925	0.835	1.04	1.23	0.829	0.692	0.734	0.663	0.649	0.607
